Assays:
Conditions in all cases: 11-point 3-fold dilution, qPCR readout
FGFR1 = biological target: T1, FGFR1 (Homo sapiens, UniProt P11362); assay: Kinase binding assay (Kd), FGFR1
T1 construct: made in house; host or cells: E. coli host derived from BL21, infected with T7 phage
Procedure: (§1) Kinase-tagged T7 phage strains were prepared in an E. coli host derived from the BL21 strain. E. coli were grown to log-phase and infected with T7 phage and incubated with shaking at 32° C. until lysis. The lysates were centrifuged and filtered to remove cell debris. Streptavidin-coated magnetic beads were treated with biotinylated small molecule ligands for 30 minutes at room temperature to generate affinity resins for kinase assays. The liganded beads were blocked with excess biotin and washed with blocking buffer SeaBlock (Pierce), 1% BSA, 0.05% Tween 20, 1 mM DTT to remove unbound ligand and to reduce non-specific binding. Binding reactions were assembled by combining kinases, liganded affinity beads, and test compounds in 1× binding buffer (20% SeaBlock, 0.17×PBS, 0.05% Tween 20, 6 mM DTT).
(§2) Test compounds were prepared as 111X stocks in 100% DMSO. Kds were determined using an 11-point 3-fold compound dilution series with three DMSO control points. All compounds for Kd measurements are distributed by acoustic transfer (non-contact dispensing) in 100% DMSO. The compounds were then diluted directly into the assays such that the final concentration of DMSO was 0.9%. All reactions performed in polypropylene 384-well plate. Each was a final volume of 0.02 ml. The assay plates were incubated at room temperature with shaking for 1 hour and the affinity beads were washed with wash buffer (lx PBS, 0.05% Tween 20). The beads were then re-suspended in elution buffer (lx PBS, 0.05% Tween 20, 0.5 μM non-biotinylated affinity ligand) and incubated at room temperature with shaking for 30 minutes. The kinase concentration in the eluates was measured by qPCR.
(§3) Binding constants were calculated with a standard dose-response curve using the Hill equation: […]
(§4) The Hill Slope was set to −1. Curves were fitted using a non-linear least square fit with the Levenberg-Marquardt algorithm.

FGFR3 = biological target: T2, FGFR3 (Homo sapiens, UniProt P22607); assay: Kinase binding assay (Kd), FGFR3
T2 construct: made in house; host or cells: E. coli host derived from BL21, infected with T7 phage
T2 sequence (P22607 23-806): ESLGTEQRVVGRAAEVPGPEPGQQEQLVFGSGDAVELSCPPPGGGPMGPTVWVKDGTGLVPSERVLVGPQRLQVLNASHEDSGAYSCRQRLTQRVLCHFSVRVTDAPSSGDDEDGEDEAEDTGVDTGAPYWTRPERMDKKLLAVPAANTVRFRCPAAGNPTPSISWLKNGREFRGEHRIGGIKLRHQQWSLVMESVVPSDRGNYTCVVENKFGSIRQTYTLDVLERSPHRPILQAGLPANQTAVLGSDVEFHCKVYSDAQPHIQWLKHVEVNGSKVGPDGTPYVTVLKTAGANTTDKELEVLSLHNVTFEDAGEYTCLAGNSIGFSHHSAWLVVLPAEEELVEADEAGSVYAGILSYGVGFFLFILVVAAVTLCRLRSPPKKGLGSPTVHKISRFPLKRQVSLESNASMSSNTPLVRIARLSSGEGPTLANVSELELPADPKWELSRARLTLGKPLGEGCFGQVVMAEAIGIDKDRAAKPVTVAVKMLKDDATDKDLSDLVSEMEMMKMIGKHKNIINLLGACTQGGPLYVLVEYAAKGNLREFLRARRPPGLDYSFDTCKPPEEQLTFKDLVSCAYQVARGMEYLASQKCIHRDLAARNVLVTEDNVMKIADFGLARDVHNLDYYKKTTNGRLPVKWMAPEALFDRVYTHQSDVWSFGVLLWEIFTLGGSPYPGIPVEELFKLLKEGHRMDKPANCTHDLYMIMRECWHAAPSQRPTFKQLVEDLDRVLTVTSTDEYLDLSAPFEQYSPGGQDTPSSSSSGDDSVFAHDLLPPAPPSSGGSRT
Procedure: as §1, §2, §3, §4

FGFR2 = biological target: T3, FGFR2 (Homo sapiens, UniProt P21802); assay: Kinase binding assay (Kd), FGFR2
T3 construct: made in house; host or cells: E. coli host derived from BL21, infected with T7 phage
T3 sequence (P21802 22-821): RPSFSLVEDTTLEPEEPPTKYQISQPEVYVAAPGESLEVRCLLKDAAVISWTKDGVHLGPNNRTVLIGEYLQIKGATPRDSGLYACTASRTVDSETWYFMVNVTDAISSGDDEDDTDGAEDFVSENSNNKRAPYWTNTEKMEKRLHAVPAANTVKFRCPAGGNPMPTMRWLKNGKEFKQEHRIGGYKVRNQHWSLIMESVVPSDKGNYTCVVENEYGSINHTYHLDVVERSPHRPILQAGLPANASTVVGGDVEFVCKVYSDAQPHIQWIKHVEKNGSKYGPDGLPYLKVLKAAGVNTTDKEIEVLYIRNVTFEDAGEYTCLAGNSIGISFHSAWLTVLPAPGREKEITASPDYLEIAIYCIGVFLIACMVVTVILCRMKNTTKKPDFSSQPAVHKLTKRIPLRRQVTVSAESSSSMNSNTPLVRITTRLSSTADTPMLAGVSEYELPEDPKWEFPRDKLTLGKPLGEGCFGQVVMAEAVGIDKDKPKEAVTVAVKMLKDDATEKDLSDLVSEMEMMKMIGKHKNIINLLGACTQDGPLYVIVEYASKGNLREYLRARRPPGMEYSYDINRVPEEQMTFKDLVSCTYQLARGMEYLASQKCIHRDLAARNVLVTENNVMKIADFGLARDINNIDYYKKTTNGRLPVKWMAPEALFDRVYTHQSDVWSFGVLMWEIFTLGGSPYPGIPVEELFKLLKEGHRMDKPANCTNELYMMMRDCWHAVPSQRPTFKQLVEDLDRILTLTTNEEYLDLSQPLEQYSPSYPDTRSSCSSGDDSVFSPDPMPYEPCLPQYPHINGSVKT
Procedure: as §1, §2, §3, §4

FGFR3 (V555M) = biological target: T4, FGFR3 (V555M) (Homo sapiens, UniProt P22607, V555M); assay: Kinase binding assay (Kd), FGFR3 (V555M)
T4 construct: made in house; host or cells: E. coli host derived from BL21, infected with T7 phage
T4 sequence (P22607 23-806 V555M): as the sequence (P22607 23-806) above, with V533M counted along it
Procedure: as §1, §2, §3, §4

FGFR4 = biological target: T5, FGFR4 (Homo sapiens, UniProt P22455); assay: Kinase binding assay (Kd), FGFR4
T5 construct: made in house; host or cells: E. coli host derived from BL21, infected with T7 phage
T5 sequence (P22455 22-802): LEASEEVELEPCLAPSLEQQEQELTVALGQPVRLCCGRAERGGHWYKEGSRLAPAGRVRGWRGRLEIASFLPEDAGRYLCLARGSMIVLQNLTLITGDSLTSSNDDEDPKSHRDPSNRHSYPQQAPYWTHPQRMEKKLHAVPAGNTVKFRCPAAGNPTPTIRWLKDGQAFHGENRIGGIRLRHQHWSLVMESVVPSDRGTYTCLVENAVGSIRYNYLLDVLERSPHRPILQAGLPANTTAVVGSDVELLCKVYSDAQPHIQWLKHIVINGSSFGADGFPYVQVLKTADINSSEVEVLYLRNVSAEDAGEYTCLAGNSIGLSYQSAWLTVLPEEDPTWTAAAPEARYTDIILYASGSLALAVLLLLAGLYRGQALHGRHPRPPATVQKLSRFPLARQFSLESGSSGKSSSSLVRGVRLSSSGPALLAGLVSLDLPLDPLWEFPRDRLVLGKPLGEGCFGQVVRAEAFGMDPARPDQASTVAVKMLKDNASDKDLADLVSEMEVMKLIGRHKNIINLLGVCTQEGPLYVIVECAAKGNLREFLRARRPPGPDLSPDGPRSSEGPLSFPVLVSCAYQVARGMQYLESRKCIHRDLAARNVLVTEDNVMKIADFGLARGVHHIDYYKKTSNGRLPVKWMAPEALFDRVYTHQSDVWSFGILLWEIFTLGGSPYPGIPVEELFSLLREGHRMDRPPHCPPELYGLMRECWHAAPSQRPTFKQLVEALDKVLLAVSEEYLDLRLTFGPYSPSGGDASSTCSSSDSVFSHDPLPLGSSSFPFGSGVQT
Procedure: as §1, §2, §3, §4

T1 sequence (P11362 22-822): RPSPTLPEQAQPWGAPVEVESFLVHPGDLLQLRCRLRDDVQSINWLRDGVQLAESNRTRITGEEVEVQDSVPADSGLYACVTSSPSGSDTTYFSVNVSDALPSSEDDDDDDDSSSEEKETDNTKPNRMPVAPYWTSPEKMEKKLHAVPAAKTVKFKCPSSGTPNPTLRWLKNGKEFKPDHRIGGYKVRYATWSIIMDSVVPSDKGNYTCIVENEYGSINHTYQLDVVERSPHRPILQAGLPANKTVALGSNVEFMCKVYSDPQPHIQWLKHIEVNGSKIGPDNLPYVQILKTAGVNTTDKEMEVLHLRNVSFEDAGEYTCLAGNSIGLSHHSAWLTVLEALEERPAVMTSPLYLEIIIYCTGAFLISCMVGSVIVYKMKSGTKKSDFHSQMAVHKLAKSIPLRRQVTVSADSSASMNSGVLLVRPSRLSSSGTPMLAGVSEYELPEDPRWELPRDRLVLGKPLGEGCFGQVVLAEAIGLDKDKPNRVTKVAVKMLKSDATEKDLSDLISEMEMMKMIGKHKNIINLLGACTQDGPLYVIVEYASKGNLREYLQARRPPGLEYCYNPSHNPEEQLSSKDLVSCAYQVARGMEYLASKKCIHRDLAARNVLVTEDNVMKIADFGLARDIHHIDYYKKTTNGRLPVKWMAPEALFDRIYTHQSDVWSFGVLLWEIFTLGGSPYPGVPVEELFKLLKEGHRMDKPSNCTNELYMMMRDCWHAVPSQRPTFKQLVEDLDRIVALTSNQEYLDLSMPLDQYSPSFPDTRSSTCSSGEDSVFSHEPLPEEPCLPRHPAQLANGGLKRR

SMILES | Kd (FGFR1) [nM] | Kd (FGFR3) [nM] | Kd (FGFR2) [nM] | Kd (FGFR3 (V555M)) [nM] | Kd (FGFR4) [nM]
CC(C)COc1cc(N=S(C)(C)=O)ccc1Nc1ncc(Cl)c(-c2c[nH]c3ccccc23)n1 [Example 4, 5-chloro-N-[4-[[dimethyl(oxo)-λ^6-sulfanylidene]amino]-2-isobutoxy-phenyl]-4-(1H-indol-3-yl)pyrimidin-2-amine] | 21000 |  |  | 4100 | 210
COc1c(N=S(C)(C)=O)cccc1Nc1ncc(Cl)c(-c2c[nH]c3ccccc23)n1 [Example 5, 5-chloro-N-[3-[[dimethyl(oxo)-λ^6-sulfanylidene]amino]-2-methoxy-phenyl]-4-(1H-indol-3-yl)pyrimidin-2-amine] | 3300 | 4300 | 14000 | 420 | 6200
CS(C)(=O)=Nc1cccc(Nc2ncc(Cl)c(-c3c[nH]c4ccccc34)n2)c1 [Example 7, 5-chloro-N-[3-[[dimethyl(oxo)-λ^6-sulfanylidene]amino]phenyl]-4-(1H-indol-3-yl)pyrimidin-2-amine] | 21 | 40 | 140 | 4 | 280
CS(C)(=O)=Nc1ccc(Nc2cc(-n3ccc4ccccc43)ncn2)cc1 [Example 15, N-[4-[[dimethyl(oxo)-λ^6-sulfanylidene]amino]phenyl]-6-indol-1-yl-pyrimidin-4-amine] | 29000 | 18000 | 14000 | 3700 | 
CC(=O)c1cn(-c2nc(Nc3ccc(N=S(C)(C)=O)cc3)ncc2C)c2ccccc12 [Example 21, 1-[1-[2-[4-[[Dimethyl(oxo)-λ^6-sulfanylidene]amino]anilino]-5-methyl-pyrimidin-4-yl]indol-3-yl]ethanone] |  | 27000 |  |  | 

Now from value to compound:

Kd (FGFR1) [nM] | Kd (FGFR3) [nM] | Kd (FGFR2) [nM] | Kd (FGFR3 (V555M)) [nM] | Kd (FGFR4) [nM] | SMILES
20000 | 8800 | 26000 | 840 |  | C=CC(=O)Nc1ccc2c(ccn2-c2nc(Nc3ccc(S(C)(=N)=O)cc3OC)ncc2Cl)c1 (single isomer, unassigned) [Example 88, N-[1-[5-Chloro-2-[2-methoxy-4-(methylsulfonimidoyl)-anilino]-pyrimidin-4-yl]indol-5-yl]prop-2-enamide]
140 | 170 | 370 | 15 | 130 | COc1cc(N=S(C)(C)=O)ccc1Nc1ncc(Cl)c(-c2c[nH]c3ccccc23)n1 [Example 1, 5-chloro-N-[4-[[dimethyl(oxo)-λ^6-sulfanylidene]amino]-2-methoxy-phenyl]-4-(1H-indol-3-yl)pyrimidin-2-amine]
480 | 430 | 1900 | 53 | 39 | CCOc1cc(N=S(C)(C)=O)ccc1Nc1ncc(Cl)c(-c2c[nH]c3ccccc23)n1 [Example 2, 5-Chloro-N-[4-[[dimethyl(oxo)-λ^6-sulfanylidene]amino]-2-ethoxy-phenyl]-4-(1H-indol-3-yl)pyrimidin-2-amine]
390 | 1100 | 1700 | 90 | 2000 | COc1ccc(N=S(C)(C)=O)cc1Nc1ncc(Cl)c(-c2c[nH]c3ccccc23)n1 [Example 6, 5-chloro-N-[5-[[dimethyl(oxo)-λ^6-sulfanylidene]amino]-2-methoxy-phenyl]-4-(1H-indol-3-yl)pyrimidin-2-amine]
 | 20000 | 21000 | 12000 |  | CS(C)(=O)=Nc1ccc(Nc2nccc(-n3ccc4ccccc43)n2)c(N)c1 [Example 18, 4-[[dimethyl(oxo)-λ^6-sulfanylidene]amino]-N1-(4-indol-1-ylpyrimidin-2-yl)benzene-1,2-diamine]
 |  |  | 3000 |  | C=CC(=O)Nc1cc(N=S(C)(C)=O)ccc1Nc1nccc(-n2ccc3ccccc32)n1 [Example 19, N-[5-[[dimethyl(oxo)-λ^6-sulfanylidene]amino]-2-[(4-indol-1-ylpyrimidin-2-yl)amino]phenyl]prop-2-enamide]

From patent publication US20230115945A1, “AMINOPYRIMIDINE COMPOUNDS” (TYRA BIOSCIENCES, INC., priority 2019, published 2023)
